In patent US20110059909A1, “METHODS FOR TREATING INFLAMMATORY DISORDERS” (priority 2004, published 2011):

Key:
rat primary astrocytes [1] = assay: BrdU incorporation assay, proliferation of primary astrocytes; format: cell-based; settings: for TNFα-induced astrocyte proliferation: pretreated 0.5 h (AS: 48 h after transfection), TNFα 1 ng/ml 18 h
Method: (§1) Primary astrocyte-enriched cultures were prepared from the whole cortex of one day old Sprague-Dawley rats as described earlier (Pahan et al., 1998b). Briefly, the cortex was rapidly dissected in ice-cold calcium/magnesium free Hanks Balanced Salt Solution (HBSS) (Gibco, Grand Island, N.Y.) at pH 7.4 as described previously (Won et al., 2001). The tissue was then minced, incubated in HBSS containing trypsin (2 mg/ml) for 20 min and washed twice in plating medium containing 10% FBS and 10 μg/ml gentamicin, and then disrupted by triturating through a Pasteur pipette following which cells were seeded in 75-cm^2 culture flasks (Falcon, Franklin, N.J.). After incubation at 37° C. in 5% CO2 for 1 day, the medium was completely changed to the culture medium (DMEM containing 5% FBS and 10 μg/ml gentamicin). The cultures received half exchanges with fresh medium twice a week. After 14-15 days the cells were shaken for at least 24 h on an orbital shaker to remove the microglia and then seeded on multi-well tissue culture dishes. The cells were incubated with serum-free DMEM for 24 h prior to the incubation with drugs.
Proliferation of primary astrocytes was assayed by using the Cell proliferation ELISA, BrdU colorimetric assay kit (Roche, Germany) according to manufacturer's protocol. Briefly, cells were seeded in 96 well plates in quadruplicate and following overnight serum starvation were stimulated with mitogenic stimulants. 2 h before termination of proliferation assay, BrdU (10 μM) was added to each well following which cells were fixed and levels of incorporated BrdU were assayed by using a conjugated anti-BrdU enzyme. Colorimetric analysis was done by measuring absorbance at 370 nm using a spectramax MAX 190 (Molecular devices) multi-well plate reading spectrophotometer.

GFAP = GFAP mRNA (real time PCR) and protein (immunoblot) in TNFα-stimulated primary astrocytes; format: cell-based, rat; settings: for TNFα-induced GFAP mRNA and protein expression: TNFα 1 ng/ml, mRNA 8 h, protein 18 h
Method: (§2) For iNOS protein, the cells were washed with cold Tris buffered saline (TBS; 20 mM Trizma base, and 137 mM NaCl, pH 7.5), lysed in 1×SDS sample loading buffer (62.5 mM Trizma base, 2% w/v SDS, 10% glycerol), following sonication and centrifugation at 15,000×g for 5 min, the supernatant was used for the iNOS western immunoblot assay. The protein concentration of samples was determined with the detergent compatible protein assay reagent (Bio-Rad Laboratories, CA) using bovine serum albumin (BSA) as the standard. Sample was boiled for 3 min with 0.1 volumes of 10% β-mercaptoethanol and 0.5% bromophenol blue mix. Fifty μg of total cellular protein was resolved by electrophoresis on 8 or 12% polyacrylamide gels, electro-transferred to polyvinylidene difluoride (PVDF) filter and blocked with Tween 20 containing Tris-buffered saline (TBST; 10 mM Trizma base-pH 7.4, 1% Tween 20, and 150 mM NaCl) with 5% skim milk. After incubation with antiserum against iNOS (BD PharMingen, CA), rat GalT-2 (Abjent Inc., CA), H-Ras (Upstate Biotechnology, CA), GFAP (Santa Cruz Biotech, CA), or phospho-specific ERK1/2 (Cell signaling Tech Inc., MA), or pIκ-B (Signal Transduction), in PVDF buffer for 2 h at room temperature, the filters were washed 3 times with TBST buffer and then incubated with horseradish peroxidase conjugated anti-rabbit or mouse IgG for 1 h. The membranes were detected by autoradiography using ECL-plus (Amersham Pharmacia Biotech) after washing with TBST buffer.

iNOS = iNOS mRNA (RT-PCR) and protein (immunoblot) in LPS/IFNγ-stimulated primary astrocytes; format: cell-based, rat; settings: for LPS/IFNγ-induced iNOS mRNA and protein levels: primary astrocytes, LPS/IFNγ (1 μg/ml; 10 U/ml), mRNA 6 h, protein 24 h
Method: as §1, §2
5 μg total RNA was treated with 2 U DNAse I (bovine pancreas, Sigma) for 15 min at room temperature in 18 μl volume containing 1×PCR buffer and 2 mM MgCl2. It was then inactivated by incubation with 2 μl of 25 mM EDTA at 65° C. for 15 min. 2 μl of random primers were added and annealed to the RNA according to the manufacturer's protocol. cDNA was synthesized in a 50 μl reaction containing 5 μg of total RNA and 50-100 U reverse transcriptase by incubating the tubes at 42° C. for 60 min. PCR amplification was conducted in 25 μl of reaction mixture with 1.0 μl of cDNA, […] of each primer and under the manufacturer's Taq polymerase conditions (Takara, Takara Shuzo Co. Ltd, Japan). The sequence of primers used for PCR amplification are as follows; iNOS, (Forward-5′ […] 3′, SEQ ID NO:3; Reverse-5′ […] 3′, SEQ ID NO:4), GalT-2 (Forward-5′ tggtacaagctagaggc 3′, SEQ ID NO:5; Reverse-5′ gcatggcacattgaa C-3′, SEQ ID NO:6), GAPDH (Forward-5′ […] 3′, SEQ ID NO:7; Reverse-5′ cttcacgaagttgtcattgagggca3′, SEQ ID NO:8), TNFα (Forward-5′ […] g-3′, SEQ ID NO:9; Reverse-5′[…]-3′, SEQ ID NO:10) and IL-1β (Forward-5′[…]-3′, SEQ ID NO:11; reverse-5′[…]-3′, SEQ ID NO:12).

rat primary astrocytes [2] = assay: Assay for NO production (nitrite, Griess reagent) in LPS/IFNγ-stimulated primary astrocytes; format: cell-based; settings: for LPS/IFNγ-induced NO production: primary astrocytes, LPS/IFNγ (1 μg/ml; 10 U/ml), NO at 24 h
Method: as §1
Cells were cultured in 12-well plastic tissue culture plates. Following appropriate treatment, production of NO was determined by an assay of the culture supernatant for nitrite (Green et al., 1982). Briefly, 100 μl of culture supernatant was allowed to react with 100 μl of Griess reagent. The optical density of the assay samples was measured spectrophotometrically at 570 nm. Nitrite concentrations were calculated from a standard curve derived from the reaction of NaNO2 in fresh media.

small GTPase Ras = assay: Quantification of Ras activation (GST-Raf-1 RBD pull-down) in primary astrocytes; format: cell-based, rat
Method: After stimulation, primary astrocytes in 6-well plates were washed with ice cold PBS and lysed in membrane lysis buffer (MLB; 0.5 ml of 25 mM HEPES, pH 7.5, 150 mM NaCl, 1% Igepal CA-630, 0.25% sodium deoxycholate, 10% glycerol, 10 mM MgCl2, 1 mM EDTA, 25 mM NaF, 1 mM of sodium orthovanadate, and EDTA free Complete™ protease inhibitor cocktail). After centrifugation (5,000×g) at 4° C. for 5 min, supernatant was used for Ras activation assay. One hundred μg of supernatant was used for binding with agarose conjugated Ras-binding domain (RBD) of Raf-1 which was expressed in BL21 (Invitrogen), Escherichia coli strain, transformed by pGEX-2T-GST-RBD in the presence of 0.1 mM of IPTG as described previously (Herrmann et al., 1995). The binding reaction was performed at 4° C. for 30 min in MLB. Following washing with MLB three times, Ras-RBD complex were denatured by adding of 2×SDS sample buffer. Ras protein was identified by western blot analysis with Ras antibodies from Upstate Biotechnology.

Q: Which results are given for `CCCCCCCCCC(=O)NC(CN1CCOCC1)C(O)c1ccccc1.Cl` [PDMP, D-threo-1-Phenyl-2-decanoylamino-3-morpholino-1-propanol.HCl]?
A: TNFα-induced astrocyte proliferation (rat primary astrocytes [1]; BrdU incorporation): dose dependently inhibited; TNFα-induced GFAP mRNA and protein expression (GFAP): inhibited; LPS/IFNγ-induced iNOS mRNA and protein levels (iNOS): dose dependent decrease; LPS/IFNγ-induced NO production (rat primary astrocytes [2]): dose dependent decrease; LPS/IFNγ-mediated activation of Ras (small GTPase Ras; PDMP 50 μM 0.5 h, LPS/IFNγ 5 min): reduced; TNFα-induced Ras activation (small GTPase Ras; pretreated 0.5 h, TNFα): attenuated

Q: “AS GalT-2 oligonucleotides: 20-mer antisense oligonucleotide 5′-CGCTTGAGCGCAGACATCTT-3′, SEQ ID NO:1, against rat lactosylceramide synthase (GalT-2) (antisense CGCTTGAGCGCAGACATCTT; chemistry not given here)” was tested. Which TNFα-induced astrocyte proliferation (rat primary astrocytes [1]; BrdU incorporation) did it give?
A: The TNFα-induced astrocyte proliferation was “decreased”.

Q: And the “TNFα-induced GFAP mRNA and protein expression” value (GFAP)?
A: The value was “diminished”.

Q: What about the “LPS/IFNγ-induced iNOS mRNA and protein levels” value (iNOS) of the same molecule?
A: The value was “decreased”.

Q: What about the “LPS/IFNγ-induced NO production” value (rat primary astrocytes [2]) of the same molecule?
A: Its value is “decreased”.

Q: For Lactosylceramide [LacCer], which “Reversal of LY-mediated inhibition of TNFα-induced proliferation” value (rat primary astrocytes [1]; LY 30 μM plus exogenous lipid) is on record?
A: Its value is “effectively blunted”.

Q: And the “Reversal of PDMP-mediated inhibition of TNFα-induced proliferation” value (rat primary astrocytes [1]; PDMP 25 μM plus exogenous lipid)?
A: The value was “able to bypass”.

Q: What about the “Reversal of GalT-2 AS-mediated inhibition of TNFα-induced proliferation” value (rat primary astrocytes [1]; exogenous LacCer) of the same molecule?
A: Its value is “bypassed the inhibition”.

Q: And the “Reversal of DMS-mediated inhibition of TNFα-induced proliferation” value (rat primary astrocytes [1]; exogenous lipid)?
A: Its value is “reversed”.

Q: What about the “Reversal of PD98059-mediated inhibition of TNFα-induced proliferation” value (rat primary astrocytes [1]; exogenous lipid) of the same molecule?
A: The value was “could not be reversed”.

Q: And the “Proliferation of astrocytes induced by the substance itself” value (rat primary astrocytes [1]; increasing doses (1, 5 and 10 μM for GSL), 18 h, BrdU incorporation)?
A: Its value is “induced proliferation”.

Q: What about the “Reversal of PDMP-mediated inhibition of TNFα-induced GFAP expression” value (GFAP; PDMP 25 μM plus LacCer 5 μM) of the same molecule?
A: The value was “reversed”.

Q: What about the “Reversal of AS-mediated inhibition of GFAP expression” value (GFAP; exogenous LacCer) of the same molecule?
A: The value was “blunted”.

Q: What about the “Reversal of LY-mediated inhibition of TNFα-mediated GFAP expression” value (GFAP; exogenous LacCer) of the same molecule?
A: Its value is “effectively bypassed”.

Q: And the “Effect on PD98059-mediated inhibition of GFAP expression” value (GFAP; exogenous LacCer, TNFα)?
A: Its value is “no effect”.

Q: What about the “Reversal of DMS-mediated inhibition of TNFα-induced GFAP expression” value (GFAP; exogenous lipid) of the same molecule?
A: The value was “reversed”.

Q: What about the “Reversal of NAC- and PDTC-mediated inhibition of LPS/IFNγ-stimulated iNOS gene expression” value (iNOS; NAC 10 mM or PDTC 100 μM, exogenous LacCer) of the same molecule?
A: The value was “not reversed”.

Q: And the “Reversal of PDMP-mediated inhibition of iNOS gene expression” value (iNOS; PDMP 50 μM plus LacCer 5 and 10 μM, 0.5 h before LPS/IFNγ)?
A: Its value is “blunted”.

Q: What about the “Effect on PD98059-mediated inhibition of iNOS gene expression” value (iNOS; exogenous LacCer, LPS/IFNγ) of the same molecule?
A: The value was “no effect”.

Q: What about the “Reversal of PDMP-mediated inhibition of LPS/IFNγ-induced NO production” value (rat primary astrocytes [2]; PDMP 50 μM plus exogenous glycosphingolipid 5 and 10 μM, 0.5 h before LPS/IFNγ) of the same molecule?
A: Its value is “blunted”.

Q: What about the “Reversal of GalT-2 AS-mediated inhibition of NO production and iNOS levels” value (rat primary astrocytes [2]; exogenous LacCer, LPS/IFNγ) of the same molecule?
A: The value was “reversed the inhibition”.

Q: What about the “Reversal of LY-mediated inhibition of TNFα-mediated Ras activation” value (small GTPase Ras; LY 30 μM plus LacCer) of the same molecule?
A: Its value is “bypassed”.

Q: What about the “Reversal of PDMP-mediated reduction of LPS/IFNγ-mediated Ras activation” value (small GTPase Ras; LacCer plus PDMP 50 μM, LPS/IFNγ 5 min) of the same molecule?
A: The value was “fully reversed”.

Q: And the “Reversal of PDMP-mediated inhibition of TNFα-induced Ras activation” value (small GTPase Ras; PDMP 25 μM plus LacCer)?
A: Its value is “fully reversed”.

Q: What about the “Reversal of DMS-mediated inhibition of Ras activation” value (small GTPase Ras; exogenous lipid) of the same molecule?
A: Its value is “reversed”.
